According to patent US7151105B2, “Inhibitors of Hepatitis C virus RNA-dependent RNA polymerase, and compositions and treatments using the same” (Agouron Pharmaceuticals, Inc., priority 2004, dated 2006):

molecular target: T1, Recombinant HCV polymerase (Hepatitis C virus genotype 1b, UniProt P26663); assay: biochemical; details: inhibition of polymerase-directed transcription; 30 min at 30° C; 30 nM enzyme; cpm data in triplicate
T1 construct: Recombinant HCV polymerase was tested for its ability to perform primer/template-directed transcription
T1 sequence (P26663 2420-3010): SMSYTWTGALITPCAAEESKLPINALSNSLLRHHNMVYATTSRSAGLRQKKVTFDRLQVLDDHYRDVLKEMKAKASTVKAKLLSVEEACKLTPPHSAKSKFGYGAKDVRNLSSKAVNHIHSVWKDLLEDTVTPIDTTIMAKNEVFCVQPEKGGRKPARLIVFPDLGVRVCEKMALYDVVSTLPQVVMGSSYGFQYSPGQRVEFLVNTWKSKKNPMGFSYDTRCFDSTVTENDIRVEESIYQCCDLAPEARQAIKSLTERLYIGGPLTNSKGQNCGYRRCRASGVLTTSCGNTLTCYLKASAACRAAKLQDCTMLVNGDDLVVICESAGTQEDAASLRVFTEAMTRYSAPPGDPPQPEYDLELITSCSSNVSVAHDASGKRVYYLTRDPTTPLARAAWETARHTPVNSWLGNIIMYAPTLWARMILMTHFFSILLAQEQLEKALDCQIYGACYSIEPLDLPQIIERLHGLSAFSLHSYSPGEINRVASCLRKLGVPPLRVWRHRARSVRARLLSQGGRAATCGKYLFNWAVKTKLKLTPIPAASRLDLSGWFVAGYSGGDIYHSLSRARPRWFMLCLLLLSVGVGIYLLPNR
Outline: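 Primer/template-directed RNA synthesis by 2.5 pmol HCV polymerase on poly(rC)300/biotin-dG12 with 1 μM GTP plus α-32P-GTP, in pH 7.2 Tris buffer with 10 mM MgCl2, for 30 min at 30 °C. Products were filter-captured and counted, with 1% DMSO final. IC50 was fitted from triplicate cpm; percent inhibition was reported where IC50 was impractical.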

Row | SMILES | IC50 [nM]
1 | CCc1cc(CCC2(C3CCCC3)CC(=O)CC(=O)O2)ccc1OCCN(C)C(=O)OC(C)(C)C (stereo not drawn) [A(67), tert-Butyl 2-{4-[2-(2-cyclopentyl-4,6-dioxotetrahydro-2H-pyran-2-yl)ethyl]-2-ethylphenoxy}ethyl(methyl)carbamate] | 47000
2 | CCc1cc(CCC2(C3CCCC3)CC(O)=C(Cc3nc4nc(C)cc(C)n4n3)C(=O)O2)ccc1OCCN (stereo not drawn) [A(71)] | 9
3 | CCn1nc(CC2=C(O)CC(CCc3ccc(C(C)(C)C#N)c(F)c3)(C3CCCC3)OC2=O)nc1C (stereo not drawn) [Example B(50), 2-[4-(2-{2-Cyclopentyl-5-[(1-ethyl-5-methyl-1H-1,2,4-triazol-3-yl)methyl]-4-hydroxy-6-oxo-3,6dihydro-2H-pyran-2-yl}ethyl)-2-fluorophenyl]-2-methylpropanenitrile] | 43
4 | CCc1cc(CCC2(C3CCCC3)CC(O)=C(Cc3nc4nc(C)cc(C)n4n3)C(=O)O2)ccc1CO (racemic) [B(33), 6-Cyclopentyl-3-[(5,7-dimethyl[1,2,4]triazolo[1,5-a]pyrimidin-2-yl)methyl]-6-{2-[3-ethyl-4-(hydroxymethyl)phenyl]ethyl}-4-hydroxy-5,6-dihydro-2H-pyran-2-one] | 28
5 | Cn1nc(C(F)(F)F)c(CC2=C(O)CC(CCc3ccc(C(C)(C)C#N)c(F)c3)(C3CCCC3)OC2=O)c1Cl (stereo not drawn) [A(97), 2-{4-[2-(5-{[5-Chloro-1-methyl-3-(trifluoromethyl)-1H-pyrazol-4-yl]methyl}-2-cyclopentyl-4-hydroxy-6-oxo-3,6-dihydro-2H-pyran-2-yl)ethyl]-2-fluorophenyl}-2-methylpropanenitrile] | 11
6 | COc1cnc(C)cc1CCC1(C2CCCC2)CC(O)=C(Cc2nc3nc(C)cc(C)n3n2)C(=O)O1 (stereo not drawn) [A(8), 6-Cyclopentyl-3-[(5,7-dimethyl[1,2,4]triazolo[1,5-a]pyrimidin-2-yl)methyl]-4-hydroxy-6-[2-(5methoxy-2-methylpyridin-4-yl)ethyl]-5,6-dihydro-2H-pyran-2-one] | 99
7 | CC(C)(O)c1ccc(CCC2(C3CCCC3)CC(O)=C(Cc3nc4ncccn4n3)C(=O)O2)cc1Cl (stereo not drawn) [B(35), 6-{2-[3-Chloro-4-(1-hydroxy-1-methylethyl)phenyl]ethyl}-6-cyclopentyl-4-hydroxy-3-([1,2,4]triazolo[1,5-a]pyrimidin-2-ylmethyl)-5,6-dihydro-2H-pyran-2-one] | 10
8 | COc1cc(OC)c(CCC2(C3CCCC3)CC(O)=C(Cc3nc(-c4ccccn4)nn3C)C(=O)O2)cc1Cl (stereo not drawn) [B(16), 6-[2-(5-Chloro-2,4-dimethoxyphenyl)ethyl]-6-cyclopentyl-4-hydroxy-3-[(1-methyl-3-pyridin-2-yl-1H-1,2,4-triazol-5-yl)methyl]-5,6-dihydro-2H-pyran-2-one] | 53
9 | COc1cnc(C)cc1CCC1(C2CCCC2)CC(=O)CC(=O)O1 (stereo not drawn) [A(7), 6-Cyclopentyl-6-[2-(5-methoxy-2-methylpyridin-4-yl)ethyl]dihydro-2H-pyran-2,4(3H)dione] | 11300
10 | CCn1nc(C)c(CC2=C(O)CC(CCc3ccc(OC(C)C)c(Cl)c3)(C3CCCC3)OC2=O)c1C (stereo not drawn) [B(19), 6-[2-(3-chloro-4-isopropoxyphenyl)ethyl]-6-cyclopentyl-3-[(1-ethyl-3,5-dimethyl-1H-pyrazol-4-yl)methyl]-4-hydroxy-5,6-dihydro-2H-pyran-2-one] | 1100
11 | CCc1cc(CCC2(C3CCCC3)CC(O)=C(Cc3nc4nc(C)cc(C)n4n3)C(=O)O2)cc(C(C)C)n1 (stereo not drawn) [A(34), 6-Cyclopentyl-3-[(5,7-dimethyl[1,2,4]triazolo[1,5-a]pyrimidin-2-yl)methyl]-6-[2-(2-ethyl-6-isopropylpyridin-4-yl)ethyl]-4-hydroxy-5,6-dihydro-2H-pyran-2-one] | 12

These reach a lower IC50. Values come first.

Row | IC50 [nM] | SMILES
12 | 8 | CCc1cc(CCC2(C3CCCC3)CC(O)=C(Cc3nc4nc(C)cc(C)n4n3)C(=O)O2)c(C)nc1N (stereo not drawn) [A(124), 6-[2-(6-Amino-5-ethyl-2-methylpyridin-3-yl)ethyl]-6-cyclopentyl-3-[(5,7-dimethyl[1,2,4]triazolo[1,5-a]pyrimidin-2-yl)methyl]-4-hydroxy-5,6-dihydro-2H-pyran-2-one]
13 | 6 | CCc1cc(CCC2(C3CCCC3)CC(O)=C(Cc3nc4ncccn4n3)C(=O)O2)ccc1NS(C)(=O)=O (stereo not drawn) [A(107), N-(4-{2-[2-cyclopentyl-4-hydroxy-6-oxo-5-([1,2,4]triazolo[1,5-a]pyrimidin-2-ylmethyl)-3,6dihydro-2H-pyran-2-yl]ethyl}-2-ethylphenyl)methanesulfonamide]
14 | 5 | Cc1cc(C)n2nc(CC3=C(O)CC(CCc4ccc(O)c(CC(F)(F)F)c4)(C4CCCC4)OC3=O)nc2n1 (single isomer, unassigned) [A(75), 6-cyclopentyl-3-[(5,7-dimethyl[1,2,4]triazolo[1,5-a]pyrimidin-2-yl)methyl]-4-hydroxy-6-{2-[4-hydroxy-3-(2,2,2-trifluoroethyl)phenyl]ethyl}-5,6-dihydro-2H-pyran-2-one]
15 | 3 | CCc1cc(CCC2(C3CCCC3)CC(O)=C(Cc3nc4nc(C)cc(C)n4n3)C(=O)O2)ccc1-c1ncco1 (stereo not drawn) [A(134), 6-cyclopentyl-3-[(5,7-dimethyl[1,2,4]triazolo[1,5-a]pyrimidin-2-yl)methyl]-6-{2-[3-ethyl-4-(1,3-oxazol-2-yl)phenyl]ethyl}-4-hydroxy-5,6-dihydro-2H-pyran-2-one]
16 | 3 | CCc1cc(CCC2(C3CCCC3)CC(O)=C(Cc3nc4nc(C)cc(C)n4n3)C(=O)O2)c(OCC(C)C)cc1O (stereo not drawn) [A(59)]
17 | 7 | CCc1ccnc(CCC2(C3CCCC3)CC(O)=C(Cc3nc4nc(C)cc(C)n4n3)C(=O)O2)c1 (stereo not drawn) [A(15), 6-Cyclopentyl-3-[(5,7-dimethyl[1,2,4]triazolo[1,5-a]pyrimidin-2-yl)methyl]-6-[2-(4-ethylpyridin-2-yl)ethyl]-4-hydroxy-5,6-dihydro-2H-pyran-2-one]
18 | 6 | CCc1cc(CCC2(C3CCCC3)CC(O)=C(Cc3nc4nc(C)cc(C)n4n3)C(=O)O2)ccc1Cn1cncn1 (stereo not drawn) [A(110), 6-Cyclopentyl-3-[(5,7-dimethyl[1,2,4]triazolo[1,5-a]pyrimidin-2-yl)methyl]-6-{2-[3-ethyl-4-(1H-1,2,4-triazol-1-ylmethyl)phenyl]ethyl}-4-hydroxy-5,6-dihydro-2H-pyran-2-one]
19 | 5 | CCc1nn2c(=O)cc(CC3=C(O)CC(CCc4ccc(C(C)(C)C#N)c(F)c4)(C4CCCC4)OC3=O)nc2s1 (stereo not drawn) [B(20), 2-[4-(2-{2-Cyclopentyl-5-[(2-ethyl-5-oxo-5H-[1,3,4]thiadiazolo[3,2-a]pyrimidin-7-yl)methyl]-4-hydroxy-6-oxo-3,6-dihydro-2H-pyran-2-yl}ethyl)-2-fluorophenyl]-2-methylpropanenitrile]
20 | 6 | CCc1cc(CCC2(C3CCCC3)CC(O)=C(Cc3nc4nc(C)cc(C)n4n3)C(=O)O2)c(OC)cn1 (single isomer, unassigned) [A(39), 6-Cyclopentyl-3-[(5,7-dimethyl[1,2,4]triazolo[1,5-a]pyrimidin-2-yl)methyl]-6-[2-(2-ethyl-5-methoxypyridin-4-yl)ethyl]-4-hydroxy-5,6-dihydro-2H-pyran-2-one]
21 | 6 | CCCOc1cnc(CC)cc1CCC1(C2CCCC2)CC(O)=C(Cc2nc3ncc(C)cn3n2)C(=O)O1 (stereo not drawn) [A(46), 6-Cyclopentyl-6-[2-(2-ethyl-5-propoxypyridin-4-yl)ethyl]-4-hydroxy-3-[(6-methyl[1,2,4]triazolo[1,5-a]pyrimidin-2-yl)methyl]-5,6-dihydro-2H-pyran-2-one]
